# Measured values as given in US12060356B2, “7 (methylamino)pyrazolo[1,5-a]pyrimidine-3-carboxamide derivatives” (Eli Lilly and Company, priority 2018, dated 2024).
# How the values were obtained:
# [1] = target: T1, pseudokinase domain (JH2) of human TYK2 (Homo sapiens, UniProt P29597); assay: TYK2-JH2 Tracer Binding Assay; settings: His-tagged TYK2-JH2 0.200 nM, Tracer 2.00 nM, TR-FRET, 30 minutes at room temperature
# T1 construct: The pseudokinase domain (JH2) of human JAK; made in house
# Text: The pseudokinase domain (JH2) of human JAK (Janus family of cytoplasmic tyrosine kinases) family tyrosine kinase 2 (TYK2) (Genbank NP_003322) with an N-terminal His6 tag is expressed in baculovirus and purified by HisPur Ni-NTA affinity and Superdex 200 size-exclusion chromatography. The compound prepared in Preparation 17, a conjugate of Alexa Fluor 647 dye (Thermo Fisher Scientific) and a suitable TYK2 JH2 binder, is referred to herein as “the Tracer”. A 3 fold, 10 point serial dilution of compound, Example 1 and Example 2, are prepared in 100% DMSO and 50 nL/well transferred to a Proxiplate-384F white plate (PerkinElmer 6008280) using acoustic liquid handling. Control wells used to determine percent inhibition contained 100% DMSO (50 nL) and either assay buffer containing the Tracer (2.00 nM final concentration) (min, low FRET) or diluted TYK2-JH2 enzyme (0.200 nM final concentration) and the Tracer (2.00 nM final concentration) (max, high FRET). […] After 30 minutes, the plate is counted on a PerkinElmer Envision with the following settings: Excitation (340 nm), Tracer Emission (665 nm) and LanthaScreen Eu-anti-His Antibody Emission (615 nm). The ratio of Tracer Emission (665 nm) over LanthaScreen Eu-anti-His Antibody Emission (615 nm) is determined.
# [2] = test system: IFNα signaling through pSTAT1 in TF1 cells; assay: Inhibition of IFNα Signaling Through pSTAT1 in TF1 Cells; assay type: cell-based; settings: Homo sapiens, TF-1, 1 hr preincubation, 10 ng/mL IFNα2 for 20 minutes, p-Stat1 (Tyr701) AlphaLISA, GeoMetric mean (SEM, n)
# Method: TF1 cells (ATCC, CL-2003) are grown in RPMI 1640 (GIBCO) supplemented with 10% dialyzed FBS, 0.1 mg/mL Ampicillin and 2 ng/mL granulocyte macrophage colony stimulating factor. TF1 cells (100 K per well) are seeded in a 96-well poly-D-lysine coated plates in serum-free DMEM and incubated overnight at 37° C. under 5% CO2. Example 1 is serially diluted in DMSO, added to the cells, and incubated at 37° C. for 1 hr. Cells are then stimulated with 10 ng/mL IFNα2 at 37° C. for 20 minutes. After removing the medium, the cells are lysed in buffer containing Halt protease and phosphatase inhibitor cocktail (Thermo Scientific #78441) at room temperature for 30 minutes. The amount of p-Stat1 (Tyr701) is quantified as light emission at 615 nm using the AlphaLISA SureFire Ultra p-Stat1 (Tyr701) assay kit (Perkin Elmer #ALSU-PST1-A50K) following the vendor's recommended protocol. Percent inhibition at each inhibitor concentration is calculated and fit to the four parameter nonlinear logistic equation using Genedata Screener® to give an IC50 for the compound of Example 1 of 0.007 μM (0.002 μM, n=4) and for the compound of Example 2 of 0.100 μM (0.014 μM, n=4) expressed as GeoMetric means with the standard error of the mean (SEM).
# [3] = test system: IL-23 signaling (STAT3 phosphorylation) in Kit225 cells; assay: IL23 pSTAT3 AlphaLISA Assay; assay type: cell-based; settings: 1 hour preincubation, IL23 25 ng/mL for 30 minutes, GeoMetric mean (SEM, n), read-out: relative IC50
# Method: IL2-dependent Kit225 cells (University of Texas MD Anderson Cancer Center) expressing endogenous IL23 receptors are stably transduced with the Lenti STAT3 Reporter linked to firefly luciferase (SABiosciences CLS-6028L). These cells are used to monitor TYK2 activity by quantifying gene expression caused by STAT3 phosporylation following induction by IL23 in the presence of IL2 using AlphaLISA technology (TGR Biosciences ALSU-TST3-A50K). The cells are grown in RPMI 1640 (Gibco 22400) supplemented with 10% FBS (Invitrogen 10082), 1× Pen/Strep (Gibco 15140-122), 200 ng/ml Puromycin (Sigma P9620), and fresh 10 ng/ml recombinant human IL2 (R&D Systems 202-IL-50).
# For assay preparation, cells are dispensed into Biocoat black poly-d-lysine coated clear bottom 384-well plates (Becton Dickinson Bio-Coat 35-4640) in DMEM (Sigma D5796) at 300,000 cells/well and allowed to incubate overnight at 37° C. Compounds solubilized in DMSO are serially diluted 1:3 to produce a 10-point concentration response curve (final DMSO=0.1%). Cells are pre-incubated with Example 1 for 1 hour at 37° C., then stimulated with IL23 (25 ng/mL final) for 30 minutes. […] The AlphaLISA reaction is performed following the vendor's recommended protocol, and the […] are measured using an Envision plate reader (Perkin Elmer).
# T1 sequence (P29597 589-875 limits assumed): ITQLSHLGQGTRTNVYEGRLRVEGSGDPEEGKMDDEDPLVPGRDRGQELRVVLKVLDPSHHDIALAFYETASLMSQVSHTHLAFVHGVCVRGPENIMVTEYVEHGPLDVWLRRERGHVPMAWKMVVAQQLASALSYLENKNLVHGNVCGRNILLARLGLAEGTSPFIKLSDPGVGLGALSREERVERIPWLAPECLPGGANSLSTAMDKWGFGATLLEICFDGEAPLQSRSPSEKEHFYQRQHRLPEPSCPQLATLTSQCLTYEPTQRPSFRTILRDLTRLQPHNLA
SMILES,IC50 [1],IC50 [2],IC50 [3]
"CNc1cc(Nc2cccc3c2OCCC3)nc2c(C(=O)N[C@@H]3CCN(C)C3=O)cnn12 [Example 1, 5-(Chroman-8-ylamino)-7-(methylamino)-N-[(3R)-1-methyl-2-oxo-pyrrolidin-3-yl]pyrazolo[1,5-a]pyrimidine-3-carboxamide]",< 0.254 nM,7 nM,7 nM
"CNc1cc(Nc2cccc(C)n2)nc2c(C(=O)N[C@@H]3CCN(C)C3=O)cnn12 [Example 2, 7-(Methylamino)-N-[(3R)-1-methyl-2-oxo-pyrrolidin-3-yl]-5-[(6-methyl-2-pyridyl)amino]pyrazolo[1,5-a]pyrimidine-3-carboxamide]",< 0.254 nM,100 nM,66 nM
